Legend:
[1] = tested on: liver cells of rats fasting for 48 h; assay: metabolism of lactate and glutamine in liver cells of rats fasting for 48 h; format: cell-based, rat
Method: […] Enzymatic assay of the consumption of lactate and glutamine was performed, the production of their metabolites was also analysed. Finally the ATP cell concentration was determined.
Complete oxidation of a substrate was measured by the lowest CO2 value produced from one of its carbons. As a result, this carbon is found in greater quantity in non-volatile products (other than CO2) formed during the metabolism of this substrate.
Complete oxidation of lactate can therefore be determined by measuring the production of 13CO2 from 2-13C-lactate.
Complete oxidation of glutamine can be examined by measuring the production of 13CO2 from 3-13C-glutamine (Biochem. J., 2004, 378, 485-495).

[2] = glycaemia and circulating insulin before and after a glucose load in STZ-N0a rats; format: in vivo; settings: for Glycaemia, Time −60 mn / Insulin, Time −60 mn: time −60 min; for Glycaemia, Time 0 mn / Insulin, Time 0 mn: time 0 min; for Glycaemia, Time 30 mn / Insulin, Time 30 mn: time 30 min; for Glycaemia, Time 60 mn / Insulin, Time 60 mn: time 60 min; for Glycaemia, Time 90 mn / Insulin, Time 90 mn: time 90 min; for Glycaemia, Time 120 mn / Insulin, Time 120 mn: time 120 min
From the text: An increase in insulin secretion was noted solely when compound 2 caused an increases in the peripheral consumption of glucose by skeletal muscle (Tables 9 to 12 which give a mean of the results obtained). […] It is shown in Tables 11 and 12 that if there is no increase in muscle consumption of glucose, there is no increase in the level of circulating insulin.

[3] = oral glucose tolerance test (OGTT) in normal Swiss mice fasting for 17 hours, additive effect with metformin; format: in vivo; settings: metformin 300 mg/kg per os; for Glycaemia, Time −60 mn / Glycaemia, Time 0 mn / Glycaemia, Time 30 mn / Glycaemia, Time 60 mn / Glycaemia, Time 90 mn / Glycaemia, Time 120 mn: OGTT; for Glycaemia, Time −60 mn: given 1 h before glucose load, time −60 min; for Glycaemia, Time 0 mn: time 0 min; for Glycaemia, Time 30 mn: time 30 min; for Glycaemia, Time 60 mn: time 60 min; for Glycaemia, Time 90 mn: time 90 min; for Glycaemia, Time 120 mn: time 120 min
[4] = 5 mM 2-13C-lactate + 0.5 mM compound 2, n = 4
[5] = 5 mM 3-13C-glutamine + 0.5 mM compound 2, n = 4
[6] = 5 mM glutamine + 2 mM compound 2, n = 6
[7] = 5 mM lactate + 0.5 mM compound 2, n = 3
[8] = 5 mM lactate + 2 mM compound 2, n = 6
[9] = Table 11, compound 2, title 25 mg/kg (row prints 200 mg/kg)
[10] = Table 12, compound 2, title 25 mg/kg (row prints 200 mg/kg)
[11] = Table 2, compound 2 50 mg/kg per os
[12] = Table 3, compound 3 50 mg/kg per os
[13] = Table 4, compound 4 50 mg/kg per os

O=C(O)CCC(=O)c1ccc(OCCN2CCN(c3ccccn3)CC2)cc1 [Compound 2]
reduction of the consumption of lactate ([1]; 5 mM 2-13C-lactate + 0.5 mM compound 2): 10% | 13CO2 production [1, 4]: 5.99 ± 0.09 μmoles/flask | ATP concentration [1, 4]: 188.4 ± 25.2 nanomoles per 6 precisely cut liver section | Glucose production [1, 4]: 4.69 ± 0.14 μmoles/flask | ATP concentration [1, 5]: 362.9 ± 53.3 (NS) nanomoles per 6 precisely cut liver sections | Glucose production [1, 5]: 6.05 ± 0.30 μmoles/flask | Production of 13CO2 [1, 5]: 1.86 ± 0.28 μmoles/flask | ATP concentration ([1]; 5 mM glutamine + 2 mM compound 2): 34.2 ± 7.6 nanomoles per 2 precisely cut liver sections | Complete oxidation ([1]; 5 mM glutamine + 2 mM compound 2, consumption of glutamine − (2 * glucose + pyruvate + lactate + alanine + glutamate products)): 0.59 ± 0.35* μmoles/flask | Consumption of substrate (—) [1, 6]: −2.77 ± 0.15 μmoles/flask | Glucose production [1, 6]: 0.78 ± 0.09 μmoles/flask | Sum of labelling of non-volatile products from lactate metabolism, 1-13C-lactate [1, 7]: 1.36 ± 0.09*+ μmoles of carbon 13/flask | Sum of labelling of non-volatile products from lactate metabolism, 2-13C-lactate [1, 7]: 4.94 ± 0.15 μmoles of carbon 13/flask | Sum of labelling of non-volatile products from lactate metabolism, 3-13C-lactate [1, 7]: 4.06 ± 0.15*+ μmoles of carbon 13/flask | ATP concentration ([1]; 5 mM lactate + 2 mM compound 2): 31.8 ± 8.0 nanomoles per 2 precisely cut liver sections | Complete oxidation ([1]; 5 mM lactate + 2 mM compound 2, consumption of lactate − (2 * glucose + pyruvate + alanine products)): 0.64 ± 0.30* μmoles/flask | NADH mitochondrial transport ([1]; 5 mM lactate + 2 mM compound 2, lactate consumption minus twice glucose production): 1.06 ± 0.33 μmoles/flask | Consumption of substrate (—) [1, 8]: −2.59 ± 0.34 μmoles/flask | Glucose production [1, 8]: 0.76 ± 0.13 μmoles/flask | Glycaemia AUC ([2]; Table 9, compound 2 200 mg/kg): 356 | Glycaemia, Time −60 mn ([2]; Table 9, compound 2 200 mg/kg, glucose load at 0 min): 4.75 mmol/L | Glycaemia, Time 0 mn ([2]; Table 9, compound 2 200 mg/kg): 8.75 mmol/L | Glycaemia, Time 30 mn ([2]; Table 9, compound 2 200 mg/kg): 12.97 mmol/L | Glycaemia, Time 60 mn ([2]; Table 9, compound 2 200 mg/kg): 13.15 mmol/L | Glycaemia, Time 90 mn ([2]; Table 9, compound 2 200 mg/kg): 11.37 mmol/L | Glycaemia, Time 120 mn ([2]; Table 9, compound 2 200 mg/kg): 10.13 mmol/L | Insulin, Time −60 mn ([2]; Table 10, compound 2 200 mg/kg, circulating insulin): 0.47 ng/mL | Insulin, Time 0 mn ([2]; Table 10, compound 2 200 mg/kg): 0.41 ng/mL | Insulin, Time 30 mn ([2]; Table 10, compound 2 200 mg/kg): 0.70 ng/mL | Insulin, Time 60 mn ([2]; Table 10, compound 2 200 mg/kg): 0.59 ng/mL | Insulin, Time 90 mn ([2]; Table 10, compound 2 200 mg/kg): 0.54 ng/mL | Insulin, Time 120 mn ([2]; Table 10, compound 2 200 mg/kg): 0.53 ng/mL | Glycaemia AUC [2, 9]: 1048 | Glycaemia, Time 0 mn [2, 9]: 5.23 mmol/L | Glycaemia, Time 30 mn [2, 9]: 11.15 mmol/L | Glycaemia, Time 60 mn [2, 9]: 16.21 mmol/L | Glycaemia, Time 90 mn [2, 9]: 14.36 mmol/L | Glycaemia, Time 120 mn [2, 9]: 15.33 mmol/L | Glycaemia, Time −60 mn [2, 9]: 5.12 mmol/L | Insulin, Time 0 mn [2, 10]: 1.41 ng/mL | Insulin, Time 30 mn [2, 10]: 1.76 ng/mL | Insulin, Time 60 mn [2, 10]: 1.48 ng/mL | Insulin, Time 90 mn [2, 10]: 1.61 ng/mL | Insulin, Time 120 mn [2, 10]: 1.61 ng/mL | Insulin, Time −60 mn [2, 10]: 1.11 ng/mL | Glycaemia, Time −60 mn [3, 11]: 4.6 ± 0.4 mM/liter | Glycaemia, Time 0 mn [3, 11]: 4.9 ± 0.2 mM/liter | Glycaemia, Time 30 mn [3, 11]: 14.5 ± 1.4 mM/liter | Glycaemia, Time 60 mn [3, 11]: 10.4 ± 0.5 mM/liter | Glycaemia, Time 90 mn [3, 11]: 8.3 ± 1.1 mM/liter | Glycaemia, Time 120 mn [3, 11]: 6.8 ± 0.6 mM/liter | drop of glycaemia area under curve after glucose load ([3]; study 2, compound 2 50 mg/kg per os): 40.5%

COc1cccc(N2CCN(CCOc3ccc(C(=O)CCC(=O)O)cc3)CC2)c1 [Compound 3]
Glycaemia, Time −60 mn [3, 12]: 4.4 ± 0.3 mM/liter | Glycaemia, Time 0 mn [3, 12]: 5.5 ± 0.3 mM/liter | Glycaemia, Time 30 mn [3, 12]: 11.3 ± 0.6 mM/liter | Glycaemia, Time 60 mn [3, 12]: 9.7 ± 0.4 mM/liter | Glycaemia, Time 90 mn [3, 12]: 7.4 ± 0.3 mM/liter | Glycaemia, Time 120 mn [3, 12]: 7.2 ± 0.5 mM/liter | drop of glycaemia area under curve after glucose load ([3]; study 3, compound 3 50 mg/kg per os): 54.9%

COc1ccccc1N1CCN(CCOc2ccc(CCCCC(=O)O)cc2)CC1 [Compound 4]
Glycaemia, Time −60 mn [3, 13]: 3.4 ± 0.2 mM/liter | Glycaemia, Time 0 mn [3, 13]: 4.0 ± 0.3 mM/liter | Glycaemia, Time 30 mn [3, 13]: 18.6 ± 3.2 mM/liter | Glycaemia, Time 60 mn [3, 13]: 13.3 ± 1.5 mM/liter | Glycaemia, Time 90 mn [3, 13]: 8.8 ± 1.0 mM/liter | Glycaemia, Time 120 mn [3, 13]: 6.8 ± 1.0 mM/liter | drop of glycaemia area under curve after glucose load ([3]; study 4, compound 4 50 mg/kg per os): 18.7%
